Legend:
HT29 cells = assay: LPS-induced IL-8 production by HT29 intestinal epithelial cells (ELISA); type: cell-based, human; details: compounds 50 mg/L to 5 μg/L for 18 h, then LPS (Salmonella enterica abortus equi) 1 μg/ml 6 h
Method: FIG. 2A. LPS-induced IL-8 production by HT29 cells in the absence or presence of the indicated concentrations of compound (c) 4, 5, 6, 7, 4′, 14.
(§1) The effect of the compounds on the release of IL-8 or KC was tested upon stimulation of intestinal epithelial cells (IEC) with LPS from Salmonella enterica abortus equi. The human IEC line HT29 was used for these experiments. Cells were cultured for 18 h in medium alone or in medium additioned with different concentrations of compounds 4, 5, 6, 7, 4′ and 14 (from 50 mg/L to 5 μg/L). Then, cells were stimulated for 6 h with LPS (1 μg/ml). […] Similar experiments were performed on a human pneumocyte type II cell line (A549) using compound 4 and LPS from Pseudomonas aeruginosa.

A549 human pneumocytes = assay: LPS-induced IL-8 production by A549 human pneumocytes; type: cell-based; details: LPS from Pseudomonas aeruginosa 100 μg/ml, compound 4 5 μg/L
Method: FIG. 2B. LPS (100 μg/ml)-induced IL-8 production by A549 human pneumocytes in the absence or presence of compound (Comp) 4 (5 μg/L).
as §1

mice treated with LPS = assay: Serum KC levels after oral LPS in mice (diarrhoea model); type: in vivo; details: compound 4 25 μg/kg oral, then LPS 50 mg/kg oral, serum after 4 h, ELISA
Method: FIG. 3. Serum levels of cytokine KC from mice treated with LPS alone or LPS with comp 4. Untr=untreated; LPS=Mice treated with LPS alone; comp 4+LPS=Mice treated with comp 4+LPS; comp 4=Mice treated with comp 4 alone.
We tested whether oral pretreatment of mice with the compound 4 interferes with the increase in KC serum levels induced by LPS administration to mice. The dosage of compound 4 chosen for all in vivo experiments was 25 μg/kg. Mice (10/group) were treated orally with compound 4 (25 μg/kg), followed by oral treatment with LPS (50 mg/kg). Serum samples were collected after 4 h, and KC levels were evaluated by ELISA.

[1] = test system: ovalbumin-treated C57B1/6 mice; assay: Ovalbumin mouse model of asthma; type: in vivo
Text: FIG. 8. Serum levels of IL-4, IL-5 and IL-10 in untreated mice or mice treated with ovalbumin+comp 4. Untr=Untreated mice; comp 4=Mice treated with comp 4 alone; OVA=Mice treated with ovalbumin alone; comp 4+OVA=Mice treated with comp 4 and ovalbumin.
FIG. 9. BALF levels of IL-4 and IL-5 in untreated mice or mice treated with ovalbumin+compound 4. Untr=Untreated mice; comp 4=Mice treated with comp 4 alone; OVA=Mice treated with ovalbumin alone; comp 4+OVA=Mice treated with comp 4 and ovalbumin.
Compound 4 was tested in a mouse model of asthma where glucose had already been shown therapeutic efficacy. For this purpose, 10 male C57B1/6 mice were immunized intraperitoneally with 100 μg of ovalbumin (grade V) suspended in 500 μg Al(OH)3. Another group of 10 animals was treated the same way and, in addition, also with compound 4 (25 μg/kg) administered orally. One week after the first immunization, the same treatments were repeated. Two weeks after the first immunization, the first group of animals was challenged for 25 min with an aerosol of 5% (wt/vol) ovalbumin every day, for 5 consecutive days, while the other group received aerosolized ovalbumin plus compound 4 (25 μg/kg).
A hallmark of inflammatory damage to the lung is the development of high-permeability edema, characterized by high protein content in the edema fluid. Indeed, in the lungs of ovalbumin-exposed mice the protein concentration in the BALF was markedly high (0.729 mg/ml), witnessing an important damage to the lungs of these animals. On the other hand, the protein concentration in the BALF of ovalbumin+4-treated animals was similar to that of untreated animals (0.394 mg/ml).
Eventually, also the cytokine levels in the sera and BALFs of ovalbumin- or ovalbumin+compound 4-treated animals were measured. The levels of the cytokines IL-5 and IL-4, which are pivotal in the pathogenesis of asthmatic disease, were elevated in both sera and BALF from ovalbumin-treated mice, but normal in ovalbumin+4-treated animals.

[2] = test system: mice treated with doxorubicin and 5-fluoruracil; assay: Chronic doxorubicin- and 5-fluoruracil-induced enterocyte injury in mice; type: in vivo
Method: FIG. 11. Serum levels of KC in untreated mice or mice submitted to acute treatment with doxorubicin or chronic treatment with doxorubicin and 5-fluorouracil. Untr=Untreated; Doxo 27 mg=Mice submitted to acute treatment with doxorubicin; Doxo 27 mg comp 4=Mice submitted to acute treatment with doxorubicin and concomitant p.o. administration of comp 4; Doxo cron=Mice submitted to chronic treatment with doxorubicin and 5-fluoruracil; Doxo cron comp 4=Mice submitted to chronic treatment with doxorubicin and 5-fluoruracil and concomitant p.o. administration of compound 4.
FIG. 13. Histology of the epithelium of the small intestine in mice after chronic treatment with doxorubicin and 5-fluoruracil (DOXO+FLUO) or chronic treatment with doxorubicin and 5-fluoruracil and concomitant administration of compound 4 (comp 4+DOXO+FLUO).
For the chronic model of enterocyte injury, doxorubicin was administered 1×/week for three weeks (7 mg/kg for the first two administrations, […] for the last administration). At the same times, mice were administered also 5-fluoruracil at 100 mg/kg. Administrations of the chemotherapeutics were performed intraperitoneally. Some of the mice were treated at the same times with compound 4 (25 μg/kg, orally). Recovery of the blood for the determination of circulating KC levels and subsequent sacrifice of the animals were performed at 72 h after the last treatment. […]

[3] = test system: SGLT-1-mediated intestinal glucose absorption; assay: Glycemia in mice after oral glucose challenge; type: in vivo; details: plasma, mice challenged orally with 2.5 g/kg glucose + 250 μg/kg compound 4, 1 h
Method: As such, it was argued that it might act as a functional antagonist of SGLT-1-mediated intestinal glucose absorption, and used for the control of hyperglycemia in type II diabetes. This possibility was tested in the following experiments.
In a first set of experiments mice were orally challenged with 2.5 g/kg of glucose with or without concomitant administration of compound 4 (250 μg/kg) and glycemia was measured after 1 h.

CN(C)c1cccc2c(S(=O)(=O)NCC[C@H]3O[C@H](CO)[C@@H](O)[C@H](O)[C@H]3O)cccc12 [Compound 4, 5-(Dimethylamino)-N-[2′-(α-D-glucopyranosyl)ethyl]-1-naphthalenesulphonamide]
production of IL-8 induced by LPS (HT29 cells): significantly inhibited | LPS-induced IL-8 production (A549 human pneumocytes): significantly inhibited | Serum KC levels (mice treated with LPS): comparable to those of untreated mice | Protection against ovalbumin inflammation ([1]; oral administration of compound 4 during aerosol ovalbumin challenge (data not shown)): protects the ovalbumin inflammation analogously to the aerosol challenge | IL-4 levels in BALF ([1]; ovalbumin + compound 4): normal | IL-4 levels in sera ([1]; ovalbumin + compound 4): normal | IL-5 levels in BALF ([1]; ovalbumin + compound 4): normal | IL-5 levels in sera ([1]; ovalbumin + compound 4): normal | IL-10 levels in sera ([1]; ovalbumin + compound 4): greatly increased | protein concentration in the BALF ([1]; ovalbumin + compound 4 (25 μg/kg)): 0.394 mg/mL | eosinophils in BALF ([1]; ovalbumin + compound 4 (25 μg/kg; oral at immunization, aerosol at challenge)): 127 cells/ml | Histology of the small intestine ([2]; chronic doxorubicin + 5-fluoruracil + compound 4 25 μg/kg orally): completely normal morphology | circulating KC levels ([2]; doxorubicin 1×/week for three weeks + 5-fluoruracil 100 mg/kg i.p. + compound 4 25 μg/kg orally, 72 h after last treatment): brought the levels back to those observed in untreated mice | Glycemia levels [3]: 150 mg/dL

— patent publication US20110112184A1, “COMPOUNDS WITH GLYCIDIC STRUCTURE ACTIVE IN THE THERAPY OF SYSTEMIC AND LOCAL INFLAMMATION” (priority 2008, published 2011)
